{"source": "patent US20230312687A1", "about": "“CELL-FREE ANIMAL COLLAGEN, METHODS OF PRODUCTION AND USES THEREOF” (ALEPH FARMS LTD., priority 2020, published 2023)", "format_in_all_cases": "cell-based", "key": {"[1]": {"system": "Bovine LOX (lysyl oxidase) gene", "experiment": "RT-PCR analysis of LOX mRNA level after siRNA transfection", "details": "20 nM siRNA, bovine stromal cells, 24 hours after transfection, n=2", "description": "The Bovine LOX (lysyl oxidase) gene (Gene ID: 280841) was knockdown using siRNA. 20,000 bovine stromal cells/cm^2 were transfected with 20 nM of siRNA sequence against LOX (5′[…]3′; SEQ ID NO:1) or a scramble sequence (5′[…]3′; SEQ ID NO:2) as control, using Dharmacon DharmaFECT 1 transfection reagent. 24 hours after transfection the cells were lysed for RNA extraction. The RNA was reverse transcribed to cDNA and 5 ng/μl were subjected to RT-PCR with the following primers: […]"}, "[2]": {"system": "bovine embryonic fibroblasts", "experiment": "Secreted soluble collagen in growth medium (QuickZyme soluble collagen assay, Sirius Red)", "description": "(§1) 35,000 bovine embryonic fibroblast cells/cm^2 were seeded in standard medium. 24 hours later the medium was changed to basal medium and the soluble collagen was measured on day 6 or 7. Likewise, 20,000 stromal cells/cm^2 were seeded in basal medium. 24 hours later the cells were transfected with siRNA targeted to LOX or a scramble sequence as a control. After 24 hours the medium was changed to fresh basal medium. The soluble collagen levels were measured daily from day 3 until day 7.\n(§2) Secreted soluble collagen was measured using QuickZyme soluble collagen assay which is based on binding of the dye Sirius Red to collagen. Following binding of the dye, the collagen-dye complex precipitates, resulting in a colored pellet. The pellet is re-suspended in an alkaline solution and the absorbance is measured in a plate reader.\n(§3) • 1. Conditioned culture medium is collected and centrifuged for 10 minutes at 1,500 g (at 4° C.) to remove cell debris. • 2. The supernatant is diluted in a dilution buffer placed in the assay microplate (V-shaped plate). • 3. The collagen standard solution is diluted in serial dilutions in the dilution buffer and placed in the assay microplate (V-shaped plate). • 4. Sirius red dye is added to the samples and to the standards and mixed. • 5. The plate is centrifuged for 60 minutes at 3000×g at 4° C. to precipitate the pellet. • 6. The pellets are washed and resuspended.\n(§4) The resuspended colored solution is transferred to the reading microplate (flat bottom) and read at 540 nm.\n35,000 bovine embryonic fibroblast cells/cm^2 were expanded in standard medium (DMEM+10% Fetal Bovine Serum+1% penicillin\\streptomycin). 24 hours after seeding their medium was changed to basal medium with 50 μM GM6001.\n(§5) 35,000 bovine embryonic fibroblast cells/cm^2 were seeded in standard medium (DMEM+10% Fetal Bovine Serum+1% penicillin\\streptomycin). 24 hours after seeding the medium was changed to basal medium with different concentration (0-500 μM) of GM6001, a matrix metalloprotease (MMP) inhibitor which prevents C-terminal cleavage of the procollagen. After 4 days, the medium was collected from the cultures and measured for soluble collagen levels. Insoluble collagen was collected from the culture dish its level was measured."}, "bovine stromal cells": {"system": "bovine stromal cells", "experiment": "Secreted soluble collagen in growth medium of stromal cells (QuickZyme soluble collagen assay)", "description": "as §1, §2\nas §3, with “The plate is centrifuged for 60 minutes at 3000×g at 4° C. to precipitate the pellet. • 6. The pellets are washed and resuspended.” left out\nas §4"}, "[3]": {"system": "bovine embryonic fibroblasts", "experiment": "Insoluble collagen from culture dish (Total Collagen Assay kit, hydroxyproline)", "details": "different concentrations of GM6001 (0-500 μM in text, 0-200 μM in legend), 4 days", "description": "24 hours after seeding the medium was changed to basal medium with different concentration (0-500 μM) of GM6001, a matrix metalloprotease (MMP) inhibitor which prevents C-terminal cleavage of the procollagen.\n• 1. Wash the cells once with PBS.\nas §5"}}, "note": "Entries after “also recorded” stand apart in the source; their conditions may differ."}
{"compound": "5′GCUGAUAACCAGACGGCACUU3′ (listed as RNA, chemistry not given here) [siRNA sequence against LOX]", "values": [{"measurement": "reduction of LOX expression (mRNA) relative to scramble control", "setting": "[1]", "result": 80, "unit": "%"}]}
{"compound": "CNC(=O)[C@H](Cc1c[nH]c2ccccc12)NC(=O)[C@@H](CC(=O)NO)CC(C)C", "note": "[GM6001, Ilomastat]", "values": [{"measurement": "amount of secreted soluble collagen for 10^6 bovine embryonic fibroblasts", "setting": "[2]; 50 μM GM6001", "result": "about 1 mg"}, {"measurement": "increase of soluble collagen in the growth medium vs basal medium", "setting": "[2]; 50 μM GM6001, 72 hours", "result": "more than 2 folds"}, {"measurement": "amount of soluble collagen in the growth medium", "setting": "[2]; Basal medium + 50 μM GM6001, 72 hours, N=6, basal medium alone 375", "result": 825, "unit": "μg/10^6 cells"}, {"measurement": "secreted soluble collagen in the growth medium (in words)", "setting": "[2]; basal medium supplemented with GM6001, bovine embryonic fibroblasts", "result": "enhanced"}, {"measurement": "maximum soluble collagen level", "setting": "[2]; basal medium with 50 μM GM6001, measured daily, maximum on the 7th day", "result": "~900", "unit": "μg\\10^6 cells"}, {"measurement": "soluble collagen level with increasing GM6001 concentration", "setting": "[2]; different concentrations of GM6001, 4 days, increase up to about 50 μM", "result": "enriches; also recorded: increased"}, {"measurement": "soluble collagen levels in the growth medium, LOX silencing combined with GM6001", "setting": "bovine stromal cells; LOX siRNA-treated bovine stromal cells, basal medium with 50 μM GM6001", "result": "increased; also recorded: enhanced"}, {"measurement": "secreted soluble collagen in the growth medium (in words)", "setting": "bovine stromal cells; basal medium supplemented with GM6001, bovine stromal cells", "result": "enhanced"}, {"measurement": "insoluble collagen level with increasing GM6001 concentration", "setting": "[3]", "result": "decrease; also recorded: decreasing"}]}
